Our source for the GI50 and TGI values is PubChem BioAssay (NCI).

Among the test systems are CAKI-1 renal; SF-539 CNS; NCI-H522 lung; SK-MEL-2 melanoma; SNB-19 CNS; MDA-MB-435; NCI/ADR-RES ovarian; HT29 colon; SF-268 CNS; NCI-H226 lung.
What all share (test): NCI-60 cell line screen, 48 h

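Briefly, cells in 96-well plates were exposed to five compound concentrations for 48 h, and endpoints were estimated by linear interpolation. GI50: concentration for 50% inhibition of growth. TGI denotes the concentration required for complete inhibition of growth.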

Consider `COc1cc(O)c(C(=O)/C=C/c2ccc(O)cc2)c(O)c1[C@@H]1C[C@H](CCc2ccc(O)cc2)O[C@H](c2ccc(O)cc2)C1`, for which the GI50 is 13.6 µM with CAKI-1 renal; 2.61 µM in the assay with SF-539 CNS; 2.97 µM in the assay with NCI-H522 lung; 3.62 µM in the assay on SK-MEL-2 melanoma; 3.58 µM in the assay on SNB-19 CNS; 3.89 µM in the assay with MDA-MB-435. Further, the GI50 with NCI/ADR-RES ovarian is 3.72 µM; with HT29 colon, 3.66 µM; in the assay on SF-268 CNS it was 3.85 µM; in the assay with NCI-H226 lung, 14.8 µM. Moreover, the TGI is 28.9 µM in the assay with CAKI-1 renal; 7.4 µM with SF-539 CNS; 9.94 µM in the assay on NCI-H522 lung; 17.5 µM in the assay on SK-MEL-2 melanoma; 13.3 µM with SNB-19 CNS; 14 µM with MDA-MB-435. The TGI with NCI/ADR-RES ovarian was 14.4 µM; in the assay on HT29 colon, 11.2 µM; in the assay with SF-268 CNS, 14.7 µM; in the assay on NCI-H226 lung, 61.2 µM.
Regarding `COc1cc(/C=C/C(=O)c2ccc(NC(=O)CN3CCN(c4cc5c(cc4F)c(=O)c(C(=O)O)cn5C4CC4)CC3)cc2)cc(OC)c1OC`, the GI50 was 1.47 µM with CAKI-1 renal; 0.721 µM in the assay on SF-539 CNS; 0.976 µM in the assay on NCI-H522 lung; 2.21 µM in the assay on SK-MEL-2 melanoma; 2.71 µM in the assay with SNB-19 CNS; 0.433 µM in the assay with MDA-MB-435. The GI50 with NCI/ADR-RES ovarian is over 75.9 µM; in the assay with HT29 colon it was 0.285 µM; in the assay on SF-268 CNS, 1.09 µM; in the assay with NCI-H226 lung, 1.52 µM. The TGI was over 32.5 µM in the assay with CAKI-1 renal; 3.03 µM in the assay on SF-539 CNS; 3.77 µM in the assay with NCI-H522 lung; 5.78 µM in the assay with SK-MEL-2 melanoma; over 59.5 µM with SNB-19 CNS; over 100 µM in the assay on NCI/ADR-RES ovarian. Also, the TGI in the assay with HT29 colon is 1.02 µM; with SF-268 CNS it was 20.4 µM; in the assay on NCI-H226 lung, over 51 µM.
On to `O=C(NP(=O)(N1CC1)N1CC1)c1cc(I)ccc1I`, for which the TGI in the assay on CAKI-1 renal was over 100 µM; with SF-539 CNS it was 71.7 µM; in the assay on NCI-H522 lung, over 92.9 µM; in the assay with SK-MEL-2 melanoma, over 100 µM; with SNB-19 CNS it was over 100 µM; with MDA-MB-435, over 100 µM. The TGI in the assay with NCI/ADR-RES ovarian is over 66.1 µM; with HT29 colon, over 100 µM; with SF-268 CNS, over 100 µM; in the assay on NCI-H226 lung, over 100 µM.
In the case of `COc1cc(C2=C(C#Cc3ccccc3)COC2=O)cc(OC)c1OC`, the GI50 with CAKI-1 renal is 20.3 µM; with SF-539 CNS it was 0.646 µM; in the assay with NCI-H522 lung, 3.01 µM; in the assay with SK-MEL-2 melanoma it was 5.35 µM; with SNB-19 CNS, 7.27 µM; with MDA-MB-435, 0.302 µM. For the same compound, the GI50 is 5.43 µM with NCI/ADR-RES ovarian, 3.02 µM with HT29 colon, 4.59 µM in the assay on SF-268 CNS and 1.73 µM with NCI-H226 lung. In addition, the TGI with CAKI-1 renal was over 100 µM; in the assay on SF-539 CNS, 4.87 µM; with NCI-H522 lung, over 33.7 µM; in the assay on SK-MEL-2 melanoma, over 90.9 µM; with SNB-19 CNS, over 76 µM; with NCI/ADR-RES ovarian it was 22.2 µM. The TGI is over 100 µM in the assay with HT29 colon, over 100 µM in the assay with SF-268 CNS and 4.6 µM in the assay with NCI-H226 lung.
Consider `COc1cc2c3c(n(CCCI)c(=O)c2cc1OC)-c1cc2c(cc1C3=O)OCO2`, for which the GI50 in the assay with CAKI-1 renal was 0.454 µM; in the assay with SF-539 CNS it was 4.04 µM; in the assay with NCI-H522 lung it was 8.32 µM; with SK-MEL-2 melanoma it was over 100 µM; in the assay with SNB-19 CNS it was over 100 µM; in the assay with MDA-MB-435, 6.06 µM. The GI50 is 27.3 µM in the assay on NCI/ADR-RES ovarian, 5.46 µM in the assay with HT29 colon, 1.34 µM in the assay with SF-268 CNS and 2.05 µM with NCI-H226 lung. The TGI with CAKI-1 renal, with SF-539 CNS, in the assay with NCI-H522 lung, in the assay with SK-MEL-2 melanoma, in the assay on SNB-19 CNS and with MDA-MB-435 was over 100 µM in each case. The TGI was over 100 µM with NCI/ADR-RES ovarian, over 100 µM with HT29 colon, over 100 µM in the assay with SF-268 CNS and 7.88 µM with NCI-H226 lung.
Consider `COc1ccc2c(c1)C(=O)c1c-2c(Nc2ccc(Cl)cc2)nc2ccccc12`, for which the GI50 in the assay on CAKI-1 renal is 20.4 µM; in the assay on SF-539 CNS it was 8.76 µM; with NCI-H522 lung, 10.1 µM; in the assay on SK-MEL-2 melanoma, 17 µM; in the assay on SNB-19 CNS, 14.4 µM; with MDA-MB-435, 38.6 µM. Also, the GI50 with NCI/ADR-RES ovarian is 16.6 µM; in the assay with HT29 colon, 27.5 µM; with SF-268 CNS it was over 100 µM; with NCI-H226 lung, 10.3 µM. Besides, the TGI in the assay with CAKI-1 renal was over 100 µM; in the assay with SF-539 CNS, 26.2 µM; in the assay on NCI-H522 lung, 45.5 µM; in the assay with SK-MEL-2 melanoma it was 56.1 µM; in the assay with SNB-19 CNS, 44 µM; in the assay on MDA-MB-435, over 100 µM. In addition, the TGI in the assay with NCI/ADR-RES ovarian is over 100 µM; with HT29 colon, over 100 µM; with SF-268 CNS it was over 100 µM; in the assay on NCI-H226 lung it was 50 µM.
On to `Nc1nc(-c2ccccc2)nc(N)c1N=O`, for which the GI50 in the assay on CAKI-1 renal is 4.5 µM; with SF-539 CNS, 5.69 µM; with NCI-H522 lung, 2.27 µM; in the assay with SK-MEL-2 melanoma, 19.5 µM; in the assay with SNB-19 CNS, 14.4 µM; in the assay with MDA-MB-435, 4.57 µM. Besides, the GI50 in the assay with NCI/ADR-RES ovarian is 6.44 µM; with HT29 colon, 2.88 µM; with SF-268 CNS it was 12.3 µM; in the assay with NCI-H226 lung, 4.87 µM. The TGI in the assay on CAKI-1 renal was determined as 36.3 µM; with SF-539 CNS, 19.5 µM; in the assay with NCI-H522 lung, 7.27 µM; in the assay with SK-MEL-2 melanoma, 41.6 µM; in the assay with SNB-19 CNS, 33 µM; in the assay with MDA-MB-435 it was 51.9 µM. Further, the TGI in the assay on NCI/ADR-RES ovarian worked out at 59.6 µM; in the assay with HT29 colon, 10.3 µM; in the assay on SF-268 CNS it was 39.2 µM; in the assay on NCI-H226 lung, 21.2 µM.
